According to patent publication US9833433B1, “Compositions, methods of use, and methods of treatment” (priority 2013, dated 2017):

Assays:
COX-2 [1] = experiment: Hippocampal COX-2 expression in mice (immunoblot); type: in vivo
PGE2 [2] = experiment: PGE2 assay in hippocampal tissue (enzyme immunoassay); type: in vivo, mice
Text: PGE2 in hippocampal tissue was detected using PGE2 enzyme immunoassay kit (Cayman Chemical, Ann Arbor, Mich.) according to the procedure described by the manufacturer (Zhang and Chen, 2008).

[3] = tested on: hippocampal LTP at CA3-CA1 and perforant path synapses; experiment: Hippocampal LTP (fEPSP recordings in slices, theta-burst stimulation); type: in vivo, mice
Experimental: Hippocampal LTP both at CA3-CA1 and perforant path synapses were recorded in acutely hippocampal slices and induced by a theta-burst stimulation (TBS) as described previously (Hoffman et al., 2007).
Hippocampal slices were prepared from mice as described previously (Chen et al., 2002; Chen et al., 2012; Fan et al., 2010). Briefly, after decapitation, brains were rapidly removed and placed in cold oxygenated (95% O2, 5% CO2) artificial cerebrospinal fluid (ACSF) containing: 125.0 NaCl, 2.5 KCl, 1.0 MgCl2, 25.0 NaHCO3, 1.25 NaH2PO4, 2.0 CaCl2, 25.0 glucose, 3 pyruvic acid, and 1 ascorbic acid. Slices were cut at a thickness of 350-400 μm and transferred to a holding chamber in an incubator containing ACSF at 36° C. for 0.5 to 1 hour, and maintained in an incubator containing oxygenated ACSF at room temperature (˜22-24° C.) for >1.5 h before recordings. Slices were then transferred to a recording chamber where they were continuously perfused with 95% O2, 5% CO2-saturated standard ACSF at ˜32-34° C. Individual pyramidal and dentate granule neurons were viewed with an upright microscope (Olympus BX51WI) fitted with a 60× water-immersion objective and differential interference contrast (DIC) optics.
Field EPSP (fEPSP) recordings both at CA3-CA1 and perforant path synapses in response to stimuli at a frequency of 0.05 Hz were made using an Axoclamp-2B patch-clamp amplifier (Molecular Devices, CA) in bridge mode. Recording pipettes were pulled from borosilicate glass with a micropipette puller (Sutter Instrument), filled with artificial ACSF (2-4 MΩ). […]

fear memory = experiment: Fear conditioning test (contextual memory); type: in vivo, mice; conditions: NS398 10 mg/kg + Δ^9-THC 10 mg/kg once a day for 7 days
Experimental: (§1) The classic Morris water maze and fear conditioning tests were performed to determine spatial and fear memory as described previously (Chen et al., 2012). The ‘open field’ test was conducted to detect the locomotor activity and the bar test was used to detect catalepsy (Egashira et al., 2007).
Hippocampus-dependent contextual memory was determined using a fear-conditioning working-station (Coulbourn Instruments, Allentown, Pa.) and a one-trial protocol as describe previously (Chen et al., 2006a; 2006b). Mice were individually put into the shock chamber and allowed to freely explore the environment for 150 seconds. Immediately after this, a tone at 90 dB and 2,800 Hz (CS) was delivered for 30 seconds, and at the last 2 seconds a foot shock at 0.8 mA was delivered to the mice for 2 seconds (US). After the pairing of CS/US, mice were allowed to stay in the chamber for another 30 seconds and then returned to their home cages. Then the animals started receiving vehicle, Δ^9-THC (10 mg/kg), NS398 (10 mg/kg), Δ^9-THC+NS398 once a day for 7 days. Fear memory test was conducted 24 hours after the cessation of the last injections. For contextual conditioning, mice were individually put back into the chamber where they received the shock and the freezing response was recorded for 5 minutes with a sampling method at an interval of 5 seconds. […]

[4] = tested on: synaptic release of glutamate; experiment: Miniature spontaneous EPSCs (mEPSCs) in cultured hippocampal neurons; type: cell-based; conditions: NS398 10 μM + Δ^9-THC 3 μM; 24 hrs
GluA1, GluN2A, GluN2B = experiment: Immunostaining of synaptic and extrasynaptic glutamate receptor subunits in hippocampal CA1; conditions: NS398+Δ^9-THC
[5] = tested on: dendritic spines of CA1 pyramidal neurons; experiment: Two-photon imaging of dendritic spines in CA1 pyramidal neurons; type: in vivo, mice; conditions: NS398+Δ^9-THC
Experimental: Morphology of dendritic spines in hippocampal CA1 pyramidal neurons was determined in GFP-expressing transgenic mice using a two-photon laser scanning microscope as described previously (Chen et al., 2012). Shape, size, and density of spines were measured from the three-dimensional reconstructions using NeuronStudio Version 0.9.92.
Morphology of dendritic spines in hippocampal CA1 pyramidal neurons was determined in GFP-expressing transgenic mice treated with vehicle, Δ^9-THC or NS398+Δ^9-THC using a two-photon laser scanning microscope (Chameleon hands-free ultrafast Ti: sapphire laser with an Olympus scan head) with Olympus FLUOVIEW 300 software (Chen et al., 2012). Shape (thin, mushroom, or stubby), size, density, and volume of spines were measured from the three-dimensional reconstructions (Z stacks: 1μ step for the whole cell and 0.1μ step for a segment of dendrites) using AutoQuant X2 or 3D deconvolution plugin of Image J (http://bigwww.epfl.ch/algorithms/deconvolutionlab) and NeuronStudio (for 3D reconstruction of imaged dendritic spines, Version 0.9.92; http://research.mssm.edu/cnic/tools-ns.html, CNIC, Mount Sinai School of Medicine). […] The following parameters were used in analyzing and quantifying spines using NeuronStudio: Voxel size was set as 0.029*0.029*0.3 μm. […]

spatial memory = experiment: Morris water maze test (spatial memory); type: in vivo, mice; conditions: NS398 10 mg/kg + Δ^9-THC 10 mg/kg once a day for 7 days
Experimental: as §1
The classic Morris water maze test was used to determine spatial memory as described previously (Chen et al., 2012). A circular water tank (diameter 120 cm and 75 cm in high) was filled with water and the water was made opaque with non-toxic white paint. A round platform (diameter 15 cm) was hidden 1 cm beneath the surface of the water at the center of a given quadrant of the water tank. COX-2 KO and WT mice received training in the Morris water maze for 5 days without any treatments (naïve). […] For each trial, the mouse was released from the wall of the tank and allowed to search, find, and stand on the platform for 10 seconds within the 60-second trial period. […] During the probe test, the platform was removed from the pool, and the task performances were recorded for 60 seconds by a video-camera and the task performances, including swimming paths, speed, and time spent in each quadrant using an EthoVision video tracking system (Noldus). The time spent in each quadrant was analyzed.

COX-2 [6] = experiment: COX-2 expression in neuronal and astroglial cell-enriched cultures; type: cell-based; conditions: assayed 12 hr after treatments
Experimental: Relative pure hippocampal neurons (astroglial cells<2%), mixed neurons and astroglial cells (astroglial cells ˜10%), and astroglial cell-enriched (astroglial cells>95%), and NG108-15 cell cultures were made as described previously (Sang et al, 2005; Zhang and Chen, 2008).
Primary hippocampal neurons (astroglial cells<2%), mixed neurons and astroglial cells (astroglial cells ˜10%), astroglial cell-enriched (astroglial cells>95%) and NG108-15 cells were cultured as described previously (Sang et al, 2005; Zhang and Chen, 2008). The extent of neurons and astroglial cells in culture were controlled by different treatments, which was estimated by using immunostaining with NeuN, a neuronal marker, glial fibrillary acidic protein (GFAP), an astrocytic marker, and OX-42, a microglial marker, in conjunction with DAPI staining.

PGE2 [7] = conditions: earlier studies (Burstein et al., 1989; Fairbairn and Pickens; Perez-Reyes et al., 1991); cited from earlier work

## CCCCCCC(C)(C)c1ccc([C@@H]2C[C@H](O)CC[C@H]2CCCO)c(O)c1 [CP55,940]
COX-2 [1]; single i.p. injection, CP55,940 10 mg/kg, detected 4 hrs
  hippocampal COX-2 expression after cannabinoid injection: more pronounced effects on COX-2 expression and PGE2 synthesis
PGE2 [2]; 10 mg/kg, detected 4 hrs after injection
  hippocampal PGE2 production after cannabinoid injection: more pronounced effects on COX-2 expression and PGE2 synthesis

## CS(=O)(=O)Nc1ccc([N+](=O)[O-])cc1OC1CCCCC1 [NS398]
[3]; LPS 3 mg/kg + NS398 10 mg/kg once a day for 7 days
  effect on LPS-reduced hippocampal LTP: prevented
[3]; NS398 10 mg/kg 30 min before Δ^9-THC 10 mg/kg, 7 days, CA3-CA1 and perforant path
  effect on Δ^9-THC-decreased hippocampal LTP: rescued decreased hippocampal LTP
Fear memory
  effect on Δ^9-THC-impaired fear memory: attenuated by COX-2 inhibition
[4]
  effect on Δ^9-THC-enhanced synaptic release of glutamate: blocked by inhibition of COX-2
GluA1, GluN2A, GluN2B
  effect on Δ^9-THC-decreased glutamate receptor expression: prevented by inhibition of COX-2
PGE2 [2]; NS398 10 mg/kg 30 min prior to CP 10 mg/kg
  effect on CP55,940-induced increase in PGE2: could be blocked
[5]
  effect on Δ^9-THC-decreased dendritic spine density: prevented by inhibition of COX-2
Spatial memory
  effect on Δ^9-THC-impaired spatial memory: occluded by COX-2 inhibition

## Cc1c(C(=O)NN2CCCCC2)nn(-c2ccc(Cl)cc2Cl)c1-c1ccc(Cl)cc1 [Rimonabant]
COX-2 [1]; RIM 5 mg/kg 30 min prior to Δ^9-THC 10 mg/kg, detected 4 hr after Δ^9-THC
  effect on Δ^9-THC-induced increase in COX-2 in the hippocampus: blocked
COX-2 [6]
  effect on Δ^9-THC-induced increase in COX-2 in neurons and astroglial cells in culture: blocked

## COc1ccc2c(c1)c(CC(=O)O)c(C)n2C(=O)c1ccc(Cl)cc1 [indomethacin]
PGE2 [7]
  effect on marijuana- or Δ^9-THC-induced elevation of PGE2 in circulation and the brain: could be antagonized
